Assay [1] addresses T1, 5-HT1A receptor (Homo sapiens, UniProt P08908).
T1 construct: expressed in transfected cells; host or cells: HEK 293 (membrane preparation)
T1 sequence (P08908 1-422): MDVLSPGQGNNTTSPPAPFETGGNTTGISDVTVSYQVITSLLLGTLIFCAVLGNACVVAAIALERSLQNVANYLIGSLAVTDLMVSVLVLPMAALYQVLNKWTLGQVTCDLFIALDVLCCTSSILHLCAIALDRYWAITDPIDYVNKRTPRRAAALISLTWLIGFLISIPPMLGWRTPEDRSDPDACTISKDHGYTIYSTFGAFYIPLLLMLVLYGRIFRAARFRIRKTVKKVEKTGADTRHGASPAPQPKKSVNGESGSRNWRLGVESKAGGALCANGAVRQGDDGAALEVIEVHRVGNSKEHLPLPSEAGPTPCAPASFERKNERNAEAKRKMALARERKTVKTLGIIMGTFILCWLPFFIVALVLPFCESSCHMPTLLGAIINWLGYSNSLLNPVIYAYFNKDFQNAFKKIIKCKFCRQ
Conditions: cited from earlier work.

The target in assay [2] is T2, human 5-HT2B receptor (Homo sapiens, UniProt P41595).
T2 construct: expressed in transfected cells; host or cells: HEK 293
T2 sequence (P41595 whole entry): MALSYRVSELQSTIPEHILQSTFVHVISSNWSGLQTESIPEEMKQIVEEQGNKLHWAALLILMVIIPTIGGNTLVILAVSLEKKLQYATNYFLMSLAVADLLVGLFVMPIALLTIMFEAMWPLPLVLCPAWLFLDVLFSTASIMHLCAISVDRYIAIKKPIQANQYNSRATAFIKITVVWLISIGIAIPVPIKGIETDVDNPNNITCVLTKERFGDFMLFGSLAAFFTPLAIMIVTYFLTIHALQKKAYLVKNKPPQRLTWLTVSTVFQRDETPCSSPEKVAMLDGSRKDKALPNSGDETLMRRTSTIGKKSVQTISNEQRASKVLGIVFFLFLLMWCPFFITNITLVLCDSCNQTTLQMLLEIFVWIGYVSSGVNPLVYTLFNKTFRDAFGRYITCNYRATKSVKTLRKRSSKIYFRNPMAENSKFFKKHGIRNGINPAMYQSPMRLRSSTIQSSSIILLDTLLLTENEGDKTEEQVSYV
Further details: method as in Luethi et al., 2018. The settings on record: ref Luethi et al., 2018, cited from earlier work.

Assay [3] relates to humans. The settings on record: ref Shulgin and Shulgin, 1991, cited from earlier work; for Psychoactivity in humans: at the doses tested.
Assay [4] deals with head-twitch response. Further details: method as in Halberstadt et al., 2019. The settings on record: ref Halberstadt et al., 2019; cited from earlier work.
For assay [5], the target named is T3, rat TAAR1 (Rattus norvegicus, UniProt Q923Y9).
T3 construct: expressed in transfected cells; host or cells: HEK 293 (membrane preparation)
T3 sequence (Q923Y9 whole entry): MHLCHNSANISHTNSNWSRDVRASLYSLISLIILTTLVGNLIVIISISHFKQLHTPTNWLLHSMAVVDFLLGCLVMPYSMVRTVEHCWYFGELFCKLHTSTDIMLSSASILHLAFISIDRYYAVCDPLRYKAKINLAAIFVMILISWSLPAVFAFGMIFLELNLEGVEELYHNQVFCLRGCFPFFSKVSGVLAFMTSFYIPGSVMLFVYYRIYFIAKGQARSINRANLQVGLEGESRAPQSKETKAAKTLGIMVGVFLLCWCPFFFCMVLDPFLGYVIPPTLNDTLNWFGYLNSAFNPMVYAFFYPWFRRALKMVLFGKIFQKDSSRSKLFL
Also noted: method as in Simmler et al., 2013. Conditions: read-out: rat TAAR1 Ki ± SD; [3H]RO5166017; ref Simmler et al., 2013; cited from earlier work.

Assay [6] concerns the target T4, mouse TAAR1 (Mus musculus, UniProt Q923Y8).
T4 construct: expressed in transfected cells; host or cells: HEK 293 (membrane preparation)
Further details: method as in Simmler et al., 2013. The settings on record: read-out: mouse TAAR1 Ki ± SD; [3H]RO5166017; ref Simmler et al., 2013; cited from earlier work.

For assay [7], the target named is T5, α1A adrenergic receptor (Homo sapiens, UniProt P35348).
T5 construct: expressed in transfected cells; host or cells: Chinese hamster ovary cell line (membrane preparation)
T5 sequence (P35348 1-466): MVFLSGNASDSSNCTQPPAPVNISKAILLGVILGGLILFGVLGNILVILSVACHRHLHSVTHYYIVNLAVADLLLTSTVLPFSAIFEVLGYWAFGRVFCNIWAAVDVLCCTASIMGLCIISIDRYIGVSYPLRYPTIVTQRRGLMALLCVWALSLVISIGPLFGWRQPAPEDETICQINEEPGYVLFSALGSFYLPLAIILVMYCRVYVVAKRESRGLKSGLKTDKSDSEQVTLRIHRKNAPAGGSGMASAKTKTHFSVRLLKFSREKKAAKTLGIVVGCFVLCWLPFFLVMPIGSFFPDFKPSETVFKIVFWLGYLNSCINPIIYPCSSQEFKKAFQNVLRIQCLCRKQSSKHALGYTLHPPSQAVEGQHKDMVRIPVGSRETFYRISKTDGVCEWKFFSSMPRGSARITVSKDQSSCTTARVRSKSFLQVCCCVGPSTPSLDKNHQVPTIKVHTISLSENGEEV
Also noted: method as in Simmler et al., 2013. The settings on record: read-out: α1A Ki ± SD; [3H]prazosin; ref Simmler et al., 2013; cited from earlier work.

Assay [8] has as its target T6, α2A adrenergic receptor (Homo sapiens, UniProt P08913).
T6 construct: expressed in transfected cells; host or cells: Chinese hamster lung cell line (membrane preparation)
T6 sequence (P08913 1-465): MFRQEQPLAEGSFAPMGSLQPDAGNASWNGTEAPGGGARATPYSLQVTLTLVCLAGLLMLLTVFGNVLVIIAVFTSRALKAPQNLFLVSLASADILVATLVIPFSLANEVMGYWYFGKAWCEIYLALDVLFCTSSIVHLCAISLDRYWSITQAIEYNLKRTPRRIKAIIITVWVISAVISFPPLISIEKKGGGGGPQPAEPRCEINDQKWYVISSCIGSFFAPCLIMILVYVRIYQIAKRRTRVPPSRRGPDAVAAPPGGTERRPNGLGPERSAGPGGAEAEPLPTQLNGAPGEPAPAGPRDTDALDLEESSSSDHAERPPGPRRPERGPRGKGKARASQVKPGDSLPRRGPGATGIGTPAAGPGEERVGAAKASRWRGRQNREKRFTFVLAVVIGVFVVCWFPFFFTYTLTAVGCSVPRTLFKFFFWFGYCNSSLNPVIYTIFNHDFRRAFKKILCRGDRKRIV
Further details: method as in Simmler et al., 2013. Conditions: read-out: α2A Ki ± SD; [3H]rauwolscine; ref Simmler et al., 2013; cited from earlier work.

Assay [9] has as its target T7, dopaminergic D2 receptor (Homo sapiens, UniProt P14416).
T7 construct: expressed in transfected cells; host or cells: HEK 293 (membrane preparation)
Further details: method as in Simmler et al., 2013. The settings on record: read-out: D2 Ki ± SD; [3H]spiperone; ref Simmler et al., 2013; cited from earlier work.

The target in assay [10] is T8, hSERT (Homo sapiens, UniProt P31645). In words: Monoamine uptake transporter inhibition, [3H]5-HT, HEK 293 cells. Conditions: 10 µM.
T8 sequence (P31645 whole entry): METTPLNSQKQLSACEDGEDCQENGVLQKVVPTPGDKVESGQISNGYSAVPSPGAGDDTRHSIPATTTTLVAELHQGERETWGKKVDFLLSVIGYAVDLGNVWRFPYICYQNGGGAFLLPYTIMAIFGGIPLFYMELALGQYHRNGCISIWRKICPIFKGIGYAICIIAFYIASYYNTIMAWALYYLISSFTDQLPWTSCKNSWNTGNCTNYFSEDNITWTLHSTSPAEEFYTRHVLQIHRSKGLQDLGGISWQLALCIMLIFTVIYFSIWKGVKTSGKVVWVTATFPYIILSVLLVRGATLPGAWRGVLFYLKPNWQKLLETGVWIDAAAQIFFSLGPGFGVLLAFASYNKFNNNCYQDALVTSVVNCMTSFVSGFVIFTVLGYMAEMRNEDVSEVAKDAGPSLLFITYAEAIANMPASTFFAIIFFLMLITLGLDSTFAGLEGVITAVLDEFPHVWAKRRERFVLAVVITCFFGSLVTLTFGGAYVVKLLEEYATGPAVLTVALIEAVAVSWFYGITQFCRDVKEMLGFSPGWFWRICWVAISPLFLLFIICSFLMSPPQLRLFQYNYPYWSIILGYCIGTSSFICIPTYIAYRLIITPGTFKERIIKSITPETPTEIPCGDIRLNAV
Assay [11] deals with T9, hDAT (Homo sapiens, UniProt Q01959). The assay is described as follows: Monoamine uptake transporter inhibition, [3H]dopamine, HEK 293 cells. Conditions: 10 µM.
T9 sequence (Q01959 whole entry): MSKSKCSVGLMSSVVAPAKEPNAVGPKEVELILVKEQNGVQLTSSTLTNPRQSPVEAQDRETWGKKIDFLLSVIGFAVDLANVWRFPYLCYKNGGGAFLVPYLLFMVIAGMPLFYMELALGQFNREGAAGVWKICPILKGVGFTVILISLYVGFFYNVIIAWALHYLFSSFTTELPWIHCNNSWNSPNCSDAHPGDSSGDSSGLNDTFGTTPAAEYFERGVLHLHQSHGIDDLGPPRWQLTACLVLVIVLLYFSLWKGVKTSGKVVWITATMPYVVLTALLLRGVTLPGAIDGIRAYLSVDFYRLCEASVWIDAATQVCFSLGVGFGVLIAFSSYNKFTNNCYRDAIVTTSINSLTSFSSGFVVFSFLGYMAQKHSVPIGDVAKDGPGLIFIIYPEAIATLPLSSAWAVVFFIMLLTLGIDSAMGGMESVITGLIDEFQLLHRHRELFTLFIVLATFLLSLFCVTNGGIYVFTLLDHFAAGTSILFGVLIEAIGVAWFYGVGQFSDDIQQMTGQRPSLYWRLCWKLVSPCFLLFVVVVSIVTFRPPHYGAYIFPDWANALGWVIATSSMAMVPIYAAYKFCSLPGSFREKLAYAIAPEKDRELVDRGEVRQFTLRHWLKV
In assay [12] the target is T10, hNET (Homo sapiens, UniProt P23975). In words: Monoamine uptake transporter inhibition, [3H]norepinephrine, HEK 293 cells. Conditions: 10 µM.
T10 sequence (P23975 whole entry): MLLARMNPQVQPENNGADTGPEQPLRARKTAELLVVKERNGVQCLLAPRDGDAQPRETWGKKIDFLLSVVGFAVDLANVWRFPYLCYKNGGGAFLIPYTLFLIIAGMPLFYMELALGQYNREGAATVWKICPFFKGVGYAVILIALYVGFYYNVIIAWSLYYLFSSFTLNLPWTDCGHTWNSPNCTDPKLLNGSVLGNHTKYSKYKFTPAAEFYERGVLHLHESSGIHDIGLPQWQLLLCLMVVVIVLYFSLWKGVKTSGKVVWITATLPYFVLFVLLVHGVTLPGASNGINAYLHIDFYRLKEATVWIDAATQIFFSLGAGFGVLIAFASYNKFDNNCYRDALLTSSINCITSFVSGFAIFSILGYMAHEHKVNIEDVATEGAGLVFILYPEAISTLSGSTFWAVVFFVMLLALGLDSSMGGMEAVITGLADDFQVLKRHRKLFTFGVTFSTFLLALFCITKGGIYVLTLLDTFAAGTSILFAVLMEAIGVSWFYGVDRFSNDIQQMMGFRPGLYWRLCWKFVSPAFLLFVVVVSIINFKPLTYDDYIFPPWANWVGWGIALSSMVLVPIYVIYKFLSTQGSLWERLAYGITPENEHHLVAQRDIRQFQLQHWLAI
Assay [13] addresses T10, hNET. Further details: expressed in transfected cells; host or cells: HEK 293 (membrane preparation); method as in Simmler et al., 2013. Conditions: read-out: hNET Ki ± SD; N-methyl-[3H]nisoxetine; ref Simmler et al., 2013; cited from earlier work.
The target in assay [14] is T9, hDAT. Also noted: expressed in transfected cells; host or cells: HEK 293 (membrane preparation); method as in Simmler et al., 2013. Conditions: [3H]WIN35,428; ref Simmler et al., 2013; read-out: hDAT Ki ± SD; cited from earlier work.
The target of assay [15] is T9, hDAT. Also noted: expressed in transfected cells; host or cells: HEK 293 (membrane preparation). The settings on record: read-out: DAT uptake inhibition EC50; known low potency in this assay; no reference given; cited from earlier work.
Assay [16] deals with T1, 5-HT1A receptor. The assay is described as follows: Radioligand binding, 5-HT1A receptor ([3H]8-OH-DPAT).
The target in assay [17] is T2, human 5-HT2B receptor. The assay is described as follows: Activity at the 5-HT2B receptor (FLIPR calcium, HEK 293 cells). Type of assay: cell-based. On the procedure:
Activity at the 5-HT2B receptor was examined as previously described ([Luethi et al., 2018]). In summary, HEK 293 cells expressing the human 5-HT2B receptor were seeded at a density of 50,000 cells per well in 96-well poly-D-lysine-coated plates overnight at 37°C. The cells were then incubated in growth medium consisting of high glucose Dulbecco’s modified Eagle’s medium (DMEM) (Invitrogen, Zug, Switzerland), 10% fetal calf serum (non-dialyzed, heat-inactivated), 250 mg/l Geneticin and 10 ml/l PenStrep (Gibco), overnight at 37°C. After removal of the growth medium via snap inversion, calcium indicator Fluo-4-solution (100 µl) was injected into each well (Molecular Probes, Eugene, OR, USA) and incubated for 45 min at 31°C. Afterwards, the Fluo-4 solution was removed (snap inversion) and a further 100 µl of the Fluo-4 solution was added and incubated (45 min, 31°C). Thereafter, using the EMBLA cell washer, the cells were washed just before testing with HBSS and 20 mM HEPES and exposed to 100 µl of assay buffer. The well plate was positioned in the FLIPR and while online, 25 µl of the test compounds diluted in assay buffer were added. Concentration-response curves were calculated using nonlinear regression, and EC50 values were obtained. The maximal activity at the receptors was calculated relative to 5-HT activity which was defined as 100%.

Assay [18] has as its target T3, rat TAAR1. In words: Radioligand binding, rat TAAR1 ([3H]RO5166017).
In assay [19] the target is T4, mouse TAAR1. In words: Radioligand binding, mouse TAAR1 ([3H]RO5166017).
The target of assay [20] is T5, α1A adrenergic receptor. The assay is described as follows: Radioligand binding, α1A adrenergic receptor ([3H]prazosin).
The target in assay [21] is T6, α2A adrenergic receptor. In words: Radioligand binding, α2A adrenergic receptor ([3H]rauwolscine).
Assay [22] has as its target T7, dopaminergic D2 receptor. The assay is described as follows: Radioligand binding, dopaminergic D2 receptor ([3H]spiperone).
In assay [23] the target is T10, hNET. The assay is described as follows: Radioligand binding, NET (N-methyl-[3H]nisoxetine). Further details: expressed in transfected cells; host or cells: HEK 293 (membrane preparation).
Assay [24] deals with T9, hDAT. In words: Radioligand binding, DAT ([3H]WIN35,428). Also noted: expressed in transfected cells; host or cells: HEK 293 (membrane preparation).
The target of assay [25] is T8, hSERT. The assay is described as follows: Radioligand binding, SERT ([3H]citalopram). Also noted: expressed in transfected cells; host or cells: HEK 293 (membrane preparation).

Each structure is given as a SMILES string. “Also recorded” adds a separate entry of the source. Like-named read-outs stand apart in the source and are kept apart here.

The text below walks through data of article PMC6893898, “Receptor Interaction Profiles of 4-Alkoxy-Substituted 2,5-Dimethoxyphenethylamines and Related Amphetamines” (Frontiers in Pharmacology, 2019).

T4 sequence (Q923Y8 whole entry): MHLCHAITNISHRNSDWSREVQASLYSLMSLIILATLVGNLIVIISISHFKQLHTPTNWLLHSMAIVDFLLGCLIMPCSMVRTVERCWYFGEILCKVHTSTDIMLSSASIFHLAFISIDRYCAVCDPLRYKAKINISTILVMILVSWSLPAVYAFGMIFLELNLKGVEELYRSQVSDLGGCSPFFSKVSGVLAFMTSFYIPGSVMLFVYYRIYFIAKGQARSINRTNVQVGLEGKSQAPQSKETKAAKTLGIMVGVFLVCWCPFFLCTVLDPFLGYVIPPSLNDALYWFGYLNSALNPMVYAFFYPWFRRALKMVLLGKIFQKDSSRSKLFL
T7 sequence (P14416 whole entry): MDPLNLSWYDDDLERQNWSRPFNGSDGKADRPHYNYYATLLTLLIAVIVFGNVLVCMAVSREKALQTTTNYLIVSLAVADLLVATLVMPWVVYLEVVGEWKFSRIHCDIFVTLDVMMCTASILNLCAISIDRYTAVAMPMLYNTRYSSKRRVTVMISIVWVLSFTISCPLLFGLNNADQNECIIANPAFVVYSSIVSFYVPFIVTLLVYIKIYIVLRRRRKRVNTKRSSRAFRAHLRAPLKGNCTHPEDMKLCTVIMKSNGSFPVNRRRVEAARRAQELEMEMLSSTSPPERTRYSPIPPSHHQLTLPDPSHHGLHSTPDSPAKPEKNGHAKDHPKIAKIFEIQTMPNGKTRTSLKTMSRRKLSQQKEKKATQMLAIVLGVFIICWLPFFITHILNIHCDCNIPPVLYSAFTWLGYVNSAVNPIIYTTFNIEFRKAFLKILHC

As to `COc1cc(CCN)c(OC)cc1Br` [2C-B, 4-bromo-2,5-dimethoxyphenethylamine], in [1] (read-out: h5-HT1A Receptor binding Ki ± SD, [3H]8-OH-DPAT, ref Luethi et al., 2018), the Ki (commonly the equilibrium dissociation constant of an inhibitor or competing ligand from its target) was 0.311 ± 0.046 µM. Also, the EC50 – broadly, the concentration giving half of the maximal effect – in assay [2] (read-out: h5-HT2B Activation potency EC50 ± SD) was 0.075 ± 0.014 µM. In addition, the “h5-HT2B Activation efficacy max ± SD” value in assay [2] (relative to 5-HT) was 52 ± 26%.
Consider `CCCOc1cc(OC)c(CC(C)N)cc1OC` (stereo not shown) [MPM, 2,5-dimethoxy-4-propoxyampehtamine], for which, in [3], the Psychoactivity in humans result was “no psychoactive effects”. In [4], the “Behavioral potency in head-twitch response” value (shortened to “Behavioral potency”) was “equipotent”.
As to `CCOc1cc(OC)c(CC(C)N)cc1OC` (stereo not shown) [MEM, 2,5-dimethoxy-4-ethoxyamphetamine], the Psychoactivity in humans result in assay [3] is listed as “displayed psychedelic activity”. In addition, the “Behavioral potency” value in [4] was “equipotent”.
Take `CC(N)Cc1ccccc1` (stereo not shown) [amphetamine]: the Ki in assay [1] (read-out: 5-HT1A receptor Ki, ref Simmler et al., 2013) is 6.7 µM.
As to `COc1cc(OC)c(OC)cc1CCN` [2C-O-1, 2,4,5-trimethoxyphenethylamine], the Psychoactivity in humans entry in assay [3] is “fairly inactive in humans; also recorded: not psychoactive in humans”.
As for `CNC(C)Cc1ccc2c(c1)OCO2` (stereo not shown) [MDMA], the Ki in assay [5] was 0.37 ± 0.12 µM; in assay [6], 2.4 ± 1.1 µM; in assay [7] it was more than 6 µM; in assay [8], 15 ± 0.2 µM; in assay [9], 25.2 ± 2 µM; in [13] it was 30.5 ± 8 µM. Moreover, the inhibition constant (Ki) in assay [14] is 6.5 ± 2.5 µM. Further, in assay [10], the “Effect on 5-HT uptake into the cells” value is “markedly reduced”. The “Effect on DA uptake into the cells” value in [11] is reported as “moderately reduced”. Also, in assay [12], the “Effect on NE uptake into the cells” value was “markedly reduced”. In addition, the EC50 in assay [15] is 17 µM.
On to `COc1cc(OC)c(OC)cc1CC(C)N` (stereo not shown) [TMA-2, 2,4,5-trimethoxyamphetamine], for which the Ki is more than 17 µM in assay [16]; 3.1 ± 0.1 µM in assay [18]; more than 4.4 µM in assay [19]; more than 6.5 µM in [20]; more than 4.7 µM in [21]; more than 13 µM in assay [22]. Besides, the Ki is more than 8.7 µM in [23], more than 8.5 µM in assay [24] and more than 7.5 µM in assay [25]. For the same compound, the EC50 in assay [17] worked out at 0.27 µM. Also, the Emax in assay [17] (HEK293, relative to 5-HT = 100%, read-out: h5-HT2B Activation efficacy max ± SD) was found to be 78 ± 5%. The Psychoactivity in humans result in [3] is listed as “displayed psychedelic activity”. In addition, the “Potency in humans relative to 3,4,5-trimethoxyamphetamine (TMA)” value in assay [3] (EMCDDA, 2004) was “roughly 6 times”. In addition, in assay [4], the “Behavioral potency” value is “equipotent”.
For the compound `CCCCOc1cc(OC)c(CC(C)N)cc1OC` (stereo not shown) [MBM, 4-butoxy-2,5-dimethoxyamphetamine], the Psychoactivity in humans result in assay [3] was “no psychoactive effects”.
With `COc1cc(OC(C)C)c(OC)cc1CCN` [2C-O-4, 2,5-dimethoxy-4-isopropoxyphenethylamine], the Psychoactivity in humans entry in assay [3] is “fairly inactive in humans; also recorded: not psychoactive in humans”.
As to `COc1cc(CCN)cc(OC)c1OC` [mescaline, 3,4,5-trimethoxyphenethylamine], in [3] (oral, humans), the “Psychoactive oral dose in humans” value is listed as more than 200 mg.
